PubChem BioAssay (NCI)
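The compound was tested at five concentrations on cells cultured in 96-well plates, with a 48-hour exposure period. Here, GI50 denotes the concentration required for 50% inhibition of growth. TGI: total growth inhibition.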

Tests used:
Experiment in all cases: NCI tumour cell line growth inhibition, 48 h
[1] = system: HT29 colon
[2] = system: 786-0 renal
[3] = system: SK-MEL-2 melanoma
[4] = system: UACC-257 melanoma
[5] = system: UACC-62 melanoma
[6] = system: HL-60(TB) leukemia
[7] = system: KM12 colon
[8] = system: SNB-75 CNS
[9] = system: DU-145 prostate

What does the source list for `CC(/C=C1\CCC(CN(C)C)C1=O)c1cccc(Br)c1` (centres undefined)?
TGI [1]: 20.7 µM; TGI [2]: 12.3 µM; TGI [3]: 30.5 µM; TGI [4]: 31.6 µM; TGI [5]: 32.4 µM; TGI [6]: 10.8 µM; TGI [7]: 23.9 µM

How did the TGI [1] turn out when `Cc1ccc(-c2nc3ccccc3c(=O)n2NC2OC(CO)C(O)C(O)C2O)cc1` (centres undefined) was run?
The TGI was > 100 µM.

And the TGI [8]?
The TGI was > 100 µM.

What about the TGI [2] of the same compound?
The TGI was > 100 µM.

And the TGI [3]?
The TGI was > 100 µM.

What about the TGI [4] of the same compound?
The TGI was > 100 µM.

What about the TGI [5] of the same compound?
The TGI was > 100 µM.

What about the TGI [6] of the same compound?
Its TGI is > 100 µM.

What about the TGI [7] of the same compound?
The TGI was > 100 µM.

Which results are given for `CCCc1nn(C)c(CCC(=O)N(Cc2ccccc2)Cc2ccccc2)c1CC`?
TGI [1]: > 100 µM; TGI [8]: > 100 µM; TGI [2]: > 100 µM; TGI [3]: > 100 µM; TGI [4]: > 100 µM; TGI [5]: > 100 µM; TGI [6]: > 100 µM; TGI [7]: > 100 µM

Which results are given for `COC(=O)/C(=N\Nc1nc(=S)[nH]n1N)C(C#N)c1ccc(Cl)cc1` (centres undefined)?
TGI [1]: > 100 µM; TGI [8]: > 100 µM; TGI [2]: > 100 µM; TGI [3]: > 100 µM; TGI [4]: > 100 µM; TGI [5]: > 100 µM; TGI [7]: > 100 µM

`CCCCNP1(NCCCC)=NP(NCCCC)(NCCCC)=NP(NCCCC)(NCCCC)=NP(NCCCC)(NCCCC)=N1` was tested. Which GI50 [1] did it give?
Its GI50 is 0.213 µM.

And the TGI [1]?
The TGI was 17.7 µM.

What about the GI50 [8] of the same compound?
Its GI50 is 3.13 µM.

And the TGI [8]?
The TGI was 15.8 µM.

What about the GI50 [2] of the same compound?
The GI50 was 1.34 µM.

What about the TGI [2] of the same compound?
The TGI was 5.26 µM.

What about the GI50 [3] of the same compound?
Its GI50 is 0.922 µM.

And the TGI [3]?
Its TGI is 3.51 µM.

What about the GI50 [4] of the same compound?
The GI50 was 1.23 µM.

What about the TGI [4] of the same compound?
The TGI was 5.55 µM.

What about the GI50 [9] of the same compound?
The GI50 was 0.895 µM.

And the TGI [9]?
Its TGI is 15.2 µM.

And the GI50 [5]?
The GI50 was 0.567 µM.

What about the TGI [5] of the same compound?
Its TGI is 5.91 µM.

What about the GI50 [6] of the same compound?
Its GI50 is 0.098 µM.

What about the TGI [6] of the same compound?
Its TGI is 0.888 µM.

What about the GI50 [7] of the same compound?
The GI50 was 0.355 µM.

And the TGI [7]?
The TGI was 4.27 µM.

Which results are given for `Oc1ccccc1/C=N\Nc1ccccc1`?
GI50 [1]: 9.39 µM; TGI [1]: 28.4 µM; GI50 [8]: 21.2 µM; TGI [8]: > 100 µM; GI50 [2]: 2.7 µM; TGI [2]: 16.6 µM; GI50 [3]: 13.2 µM; TGI [3]: > 100 µM; GI50 [4]: 31.1 µM; TGI [4]: > 100 µM; GI50 [9]: 15.8 µM; TGI [9]: > 100 µM; GI50 [5]: 0.798 µM; TGI [5]: 10.1 µM; GI50 [6]: 1.31 µM; TGI [6]: 4.8 µM; GI50 [7]: 2.25 µM; TGI [7]: > 100 µM

Which results are given for `CCCCCC1CC=CC(NC(=O)OCc2ccccc2)C1/C=C/CCCC1OCCO1` (centres undefined)?
TGI [1]: > 100 µM; TGI [8]: > 100 µM; TGI [2]: > 100 µM; TGI [3]: > 100 µM; TGI [4]: > 100 µM; TGI [5]: > 100 µM; TGI [6]: 33.4 µM; TGI [7]: > 100 µM

`CCCCCCCCC1C(C)c2c([nH]c3ccccc23)C2C(=O)N(c3ccccc3)C(=O)C21` (centres undefined) was tested. Which TGI [1] did it give?
Its TGI is 19.1 µM.

What about the TGI [8] of the same compound?
Its TGI is 39.9 µM.

And the TGI [2]?
The TGI was 26.5 µM.

What about the TGI [3] of the same compound?
The TGI was 33.3 µM.

And the TGI [5]?
Its TGI is 36.4 µM.

What about the TGI [6] of the same compound?
Its TGI is 13.9 µM.

And the TGI [7]?
The TGI was 13.5 µM.

How did the GI50 [1] turn out when `Cc1cc2oc(=O)cc(OC/C=C3/CCC(=O)O3)c2cc1C` was run?
The GI50 was 2.9 µM.

And the TGI [1]?
Its TGI is 12.7 µM.

What about the GI50 [8] of the same compound?
Its GI50 is 1.97 µM.

And the TGI [8]?
Its TGI is 9.61 µM.

And the GI50 [2]?
The GI50 was 2.57 µM.

What about the TGI [2] of the same compound?
Its TGI is 10.4 µM.

What about the GI50 [3] of the same compound?
Its GI50 is 3.41 µM.

What about the TGI [3] of the same compound?
Its TGI is 16.1 µM.

And the GI50 [4]?
The GI50 was 12.3 µM.

What about the TGI [4] of the same compound?
The TGI was 26.4 µM.

What about the GI50 [9] of the same compound?
The GI50 was 2.67 µM.

What about the TGI [9] of the same compound?
Its TGI is 12.4 µM.

What about the GI50 [5] of the same compound?
Its GI50 is 3.38 µM.

And the TGI [5]?
The TGI was 13.6 µM.

What about the GI50 [7] of the same compound?
Its GI50 is 3.31 µM.

And the TGI [7]?
Its TGI is 18 µM.

How did the TGI [1] turn out when `CSC(=NC(=O)c1ccccc1)SCCSC(=NC(=O)c1ccccc1)SC` was run?
The TGI was > 100 µM.

And the TGI [8]?
Its TGI is > 100 µM.

And the TGI [2]?
The TGI was > 100 µM.

And the TGI [3]?
Its TGI is > 100 µM.

And the TGI [4]?
Its TGI is > 100 µM.

And the TGI [5]?
Its TGI is > 100 µM.

What about the TGI [6] of the same compound?
The TGI was > 100 µM.

And the TGI [7]?
The TGI was > 100 µM.

With `NS(=O)(=O)c1ccc(-n2nc(-c3ccccc3)cc2-c2cc(O)ccc2O)cc1` as the compound, how does the GI50 [1] read?
The GI50 was 74.8 µM.

What about the TGI [1] of the same compound?
Its TGI is > 100 µM.

What about the GI50 [2] of the same compound?
Its GI50 is 90.8 µM.

And the TGI [2]?
The TGI was > 100 µM.

What about the GI50 [3] of the same compound?
Its GI50 is > 100 µM.

What about the TGI [3] of the same compound?
The TGI was > 100 µM.

What about the GI50 [4] of the same compound?
The GI50 was 34.4 µM.

What about the TGI [4] of the same compound?
The TGI was > 100 µM.

What about the GI50 [5] of the same compound?
Its GI50 is 44.9 µM.

What about the TGI [5] of the same compound?
Its TGI is > 100 µM.

What about the GI50 [7] of the same compound?
The GI50 was 38.5 µM.

What about the TGI [7] of the same compound?
Its TGI is > 100 µM.

Which TGI [1] does the source give for `CCC1=CCC(P(=O)(c2ccccc2)c2ccccc2)CC1C` (centres undefined) here?
Its TGI is > 100 µM.

And the TGI [8]?
The TGI was 49.7 µM.

And the TGI [2]?
Its TGI is > 100 µM.

What about the TGI [3] of the same compound?
The TGI was 83.5 µM.

What about the TGI [4] of the same compound?
The TGI was > 100 µM.

And the TGI [5]?
Its TGI is > 100 µM.

What about the TGI [6] of the same compound?
The TGI was 53.6 µM.

What about the TGI [7] of the same compound?
The TGI was > 100 µM.

What does the source list for `Cc1cc(C(=O)CC(Cl)=C(Cl)Cl)c(Cl)cc1Cl`?
GI50 [1]: 34.6 µM; TGI [1]: > 100 µM; GI50 [8]: 34.8 µM; TGI [8]: > 100 µM; GI50 [2]: 22.1 µM; TGI [2]: 42.1 µM; GI50 [3]: 51.2 µM; TGI [3]: > 100 µM; GI50 [4]: 19.5 µM; TGI [4]: 44.9 µM; GI50 [9]: 16 µM; TGI [9]: 40.4 µM; GI50 [5]: 18.4 µM; TGI [5]: 39.3 µM; GI50 [7]: 18.2 µM; TGI [7]: 42.1 µM

For `COc1ccc2[nH]cc(C3(c4c[nH]c5ccc(OC)cc45)C(=O)Nc4ccc(Cl)cc43)c2c1`, which GI50 [8] is on record?
The GI50 was 1.9 µM.

And the TGI [8]?
Its TGI is 14 µM.

And the GI50 [2]?
The GI50 was 4.43 µM.

What about the TGI [2] of the same compound?
Its TGI is 83.9 µM.

And the GI50 [3]?
The GI50 was 2.9 µM.

And the TGI [3]?
The TGI was 6.67 µM.

And the GI50 [4]?
The GI50 was 2.84 µM.

What about the TGI [4] of the same compound?
The TGI was > 100 µM.

And the GI50 [9]?
The GI50 was 4.73 µM.

And the TGI [9]?
The TGI was 29.2 µM.

What about the GI50 [5] of the same compound?
The GI50 was 3.61 µM.

What about the TGI [5] of the same compound?
Its TGI is > 100 µM.

And the GI50 [7]?
Its GI50 is 2.52 µM.

And the TGI [7]?
Its TGI is 6.33 µM.

How did the TGI [1] turn out when `CC(O)(c1ccc(OCCC[N+](C)(C)C)cc1)C(C)(O)c1ccc(OCCC[N+](C)(C)C)cc1` (centres undefined) was run?
Its TGI is > 100 µM.

What about the TGI [8] of the same compound?
Its TGI is > 100 µM.

What about the TGI [2] of the same compound?
Its TGI is > 100 µM.

And the TGI [3]?
The TGI was > 100 µM.

What about the TGI [4] of the same compound?
The TGI was > 100 µM.

What about the TGI [5] of the same compound?
Its TGI is > 100 µM.

And the TGI [6]?
The TGI was > 100 µM.

And the TGI [7]?
The TGI was > 100 µM.

With `COC(=O)/C=C(C)/C=C/c1c(C)c(C(C)=O)c(C)n1C` as the compound, how does the TGI [1] read?
The TGI was > 100 µM.

And the TGI [2]?
Its TGI is > 100 µM.

What about the TGI [4] of the same compound?
Its TGI is > 100 µM.

And the TGI [5]?
The TGI was > 100 µM.

What about the TGI [6] of the same compound?
Its TGI is > 100 µM.

What about the TGI [7] of the same compound?
Its TGI is > 100 µM.
